Measurements: ChEMBL document CHEMBL5331131, “Discovery of Acyl-Indole Derivatives as Pan-Serotype Dengue Virus NS4B Inhibitors” (J Med Chem, 2023)
Converted amounts (≈) assume the structure as drawn.

Legend:
[1] = Volume of distribution at steady state in Sprague-Dawley rat at 2.5 mg/kg, iv measured upto 24 hrs by LC-MS/MS analysis; format: ADME, organism-based; details: in vivo, read-out: Vdss
[2] = system: dengue virus type 1; experiment: Antiviral activity against DENV-1 TC974#666 infected in african green monkey Vero cells incubated for 24 hrs measured after 3 days post infection; format: functional, organism-based; details: TC974#666, Vero
[3] = system: dengue virus type 2; experiment: In vivo antiviral activity against DENV-2/RL infected in AG129 mouse assessed as viral load reduction in plasma administered at 30 mg/kg, po bid for 3 days; format: functional; details: time 3 day
[4] = AUC last in CD-1 mouse at 1 mg/kg, po measured for 0.5 to 24 hrs by LC-MS/MS analysis; format: ADME, organism-based; design: dose 1 mg/kg, time 0.5-24 hrs, route po; details: in vivo
[5] = Kinetic solubility of the compound in aqueous buffer at pH 7.4 measured after 4 hrs by UPLC/UV analysis; format: physicochemical; details: read-out: Kinetic_solubility
[6] = system: dengue virus type 2; experiment: In vivo antiviral activity against DENV-2/RL infected in AG129 mouse assessed as viral load reduction administered at 1 to 30 mg/kg, po bid for 3 days; format: functional, organism-based; details: dose 1-30 mg/kg, time 3.0 day
[7] = Oral bioavailability in CD-1 mouse at 1 mg/kg measured for 0.5 to 24 hrs by LC-MS/MS analysis; format: ADME, organism-based; details: in vivo, time 0.5-24 hrs
[8] = Volume of distribution at steady state in CD-1 mouse at 2.5 mg/kg, iv measured for 0.12 to 24 hrs by LC-MS/MS analysis; format: ADME, organism-based; details: in vivo, time 0.12-24 hrs, read-out: Vdss
[9] = Cmax in CD-1 mouse at 3 mg/kg, po measured for 0.5 to 24 hrs by LC-MS/MS analysis; format: ADME, organism-based; design: time 0.5-24 hrs, dose 3 mg/kg, route po; details: in vivo
[10] = Clearance in Sprague-Dawley rat at 2.5 mg/kg, iv measured upto 24 hrs by LC-MS/MS analysis; format: ADME, organism-based; details: in vivo
[11] = system: dengue virus type 4; experiment: Antiviral activity against DENV-4 H241 infected in african green monkey Vero cells incubated for 24 hrs measured after 3 days post infection; format: functional, organism-based
[12] = Microsomal stability in rat liver microsomes assessed as intrinsic clearance preincubated for 5 mins followed by NADPH addition measured upto 60 mins by LC-MS/MS analysis; format: ADME, Microsome; details: time < 65 min, read-out: CLH
[13] = Cmax in CD-1 mouse at 10 mg/kg, po measured for 0.5 to 24 hrs by LC-MS/MS analysis; format: ADME, organism-based; design: dose 10 mg/kg, time 0.5-24 hrs, route po; details: in vivo
[14] = system: dengue virus type 2; experiment: Antiviral activity against DENV-2 16681 infected in african green monkey Vero cells incubated for 24 hrs measured after 3 days post infection; format: functional, organism-based; details: Dengue virus, 16681, Vero
[15] = Microsomal stability in human liver microsomes assessed as intrinsic clearance preincubated for 5 mins followed by NADPH addition measured upto 60 mins by LC-MS/MS analysis; format: ADME, Microsome; details: time < 65 min, read-out: CLH
[16] = Cmax in CD-1 mouse at 1 mg/kg, po measured for 0.5 to 24 hrs by LC-MS/MS analysis; format: ADME, organism-based; design: dose 1 mg/kg, time 0.5-24 hrs, route po; details: in vivo
[17] = AUC last in CD-1 mouse at 10 mg/kg, po measured for 0.5 to 24 hrs by LC-MS/MS analysis; format: ADME, organism-based; design: dose 10 mg/kg, time 0.5-24 hrs, route po; details: in vivo
[18] = Oral bioavailability in CD-1 mouse at 10 mg/kg measured for 0.5 to 24 hrs by LC-MS/MS analysis; format: ADME, organism-based; details: in vivo, time 0.5-24 hrs
[19] = Cmax in Sprague-Dawley rat at 10 mg/kg, po measured upto 24 to 48 hrs by LC-MS/MS analysis; format: ADME, organism-based; design: time upper 48 hrs, dose 10 mg/kg, time lower 24 hrs, route po; details: in vivo
[20] = Half life in Sprague-Dawley rat at 2.5 mg/kg, iv measured by LC-MS/MS analysis; format: ADME, organism-based; details: in vivo
[21] = Clearance in CD-1 mouse at 2.5 mg/kg, iv measured for 0.12 to 24 hrs by LC-MS/MS analysis; format: ADME, organism-based; details: in vivo, time 0.12-24 hrs
[22] = Oral bioavailability in Sprague-Dawley rat at 10 mg/kg measured upto 24 to 48 hrs by LC-MS/MS analysis; format: ADME, organism-based; details: in vivo, time 24-48 hrs
[23] = AUC last in Sprague-Dawley rat at 10 mg/kg, po measured upto 24 to 48 hrs by LC-MS/MS analysis; format: ADME, organism-based; design: time upper 48 hrs, dose 10 mg/kg, time lower 24 hrs, route po; details: in vivo
[24] = Half life in CD-1 mouse at 2.5 mg/kg, iv measured by LC-MS/MS analysis; format: ADME, organism-based; details: in vivo
[25] = Oral bioavailability in CD-1 mouse at 3 mg/kg measured for 0.5 to 24 hrs by LC-MS/MS analysis; format: ADME, organism-based; details: in vivo, time 0.5-24 hrs
[26] = Metabolic stability in human hepatocytes assessed as intrinsic clearance measured per million cells incubated upto 120 mins by MS analysis; format: ADME, cell-based, Hepatocyte; details: read-out: CLH
[27] = Microsomal stability in mouse liver microsomes assessed as intrinsic clearance preincubated for 5 mins followed by NADPH addition measured upto 60 mins by LC-MS/MS analysis; format: ADME, Microsome; details: time < 65 min, read-out: CLH
[28] = system: dengue virus type 3; experiment: Antiviral activity against DENV-3 H87 infected in african green monkey Vero cells incubated for 24 hrs measured after 3 days post infection; format: functional, organism-based
[29] = AUC last in CD-1 mouse at 3 mg/kg, po measured for 0.5 to 24 hrs by LC-MS/MS analysis; format: ADME, organism-based; design: time upper 24 hrs, time lower 0.5 hrs, dose 3 mg/kg, route po; details: in vivo
[30] = molecular target: Voltage-gated inwardly rectifying potassium channel KCNH2 (Homo sapiens, UniProt Q12809); experiment: Displacement of [3H]Dofetilide from human ERG; format: toxicity
[31] = Oral bioavailability in CD-1 mouse at 30 mg/kg measured for 0.5 to 24 hrs by LC-MS/MS analysis; format: ADME, organism-based; details: in vivo, time 0.5-24 hrs
[32] = Cmax in CD-1 mouse at 30 mg/kg, po measured for 0.5 to 24 hrs by LC-MS/MS analysis; format: ADME, organism-based; design: time upper 24 hrs, dose 30 mg/kg, time lower 0.5 hrs, route po; details: in vivo
[33] = AUC last in CD-1 mouse at 30 mg/kg, po measured for 0.5 to 24 hrs by LC-MS/MS analysis; format: ADME, organism-based; design: time upper 24 hrs, time lower 0.5 hrs, dose 30 mg/kg, route po; details: in vivo

Voltage-gated inwardly rectifying potassium channel KCNH2, sequence (Q12809 whole entry): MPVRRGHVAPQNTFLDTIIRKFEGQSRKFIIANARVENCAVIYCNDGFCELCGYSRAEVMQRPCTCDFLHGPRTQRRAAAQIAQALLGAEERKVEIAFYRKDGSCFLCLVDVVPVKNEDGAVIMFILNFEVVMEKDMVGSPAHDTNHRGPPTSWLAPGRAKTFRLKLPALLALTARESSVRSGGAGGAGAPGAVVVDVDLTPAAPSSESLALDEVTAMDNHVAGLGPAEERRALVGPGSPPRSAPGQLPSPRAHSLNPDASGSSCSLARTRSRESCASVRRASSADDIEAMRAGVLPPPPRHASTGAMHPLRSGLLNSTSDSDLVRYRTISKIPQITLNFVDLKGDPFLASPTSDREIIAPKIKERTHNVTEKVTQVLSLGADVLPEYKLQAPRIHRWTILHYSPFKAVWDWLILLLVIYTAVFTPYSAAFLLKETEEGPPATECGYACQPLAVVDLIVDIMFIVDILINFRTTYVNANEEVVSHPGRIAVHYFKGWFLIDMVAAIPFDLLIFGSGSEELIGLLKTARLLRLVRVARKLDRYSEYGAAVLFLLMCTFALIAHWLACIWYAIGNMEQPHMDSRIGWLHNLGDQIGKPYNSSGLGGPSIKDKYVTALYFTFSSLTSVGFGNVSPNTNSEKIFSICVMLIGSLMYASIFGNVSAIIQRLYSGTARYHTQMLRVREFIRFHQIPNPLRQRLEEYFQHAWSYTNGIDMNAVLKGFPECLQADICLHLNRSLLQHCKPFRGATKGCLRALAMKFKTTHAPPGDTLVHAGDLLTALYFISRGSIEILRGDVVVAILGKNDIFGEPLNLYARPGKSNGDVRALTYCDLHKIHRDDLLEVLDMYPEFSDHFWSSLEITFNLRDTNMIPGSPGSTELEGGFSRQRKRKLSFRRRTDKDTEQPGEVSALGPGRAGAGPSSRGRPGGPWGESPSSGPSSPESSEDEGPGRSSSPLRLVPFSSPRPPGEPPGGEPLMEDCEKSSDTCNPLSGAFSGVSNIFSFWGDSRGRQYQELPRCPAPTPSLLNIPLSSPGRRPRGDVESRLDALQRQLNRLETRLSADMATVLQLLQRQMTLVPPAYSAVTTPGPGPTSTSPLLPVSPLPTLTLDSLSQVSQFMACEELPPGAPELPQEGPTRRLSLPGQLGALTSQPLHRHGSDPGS

Vd [1] [L/kg] | EC50 [2] [nM] | solubility kinetic at 4 h [5] [µM] | Vd [8] [L/kg] | Cmax [9] [ng/mL] | clearance [10] [mL/min/kg] | microsomal CLint [12] [µL/min/mg] | Cmax [13] [ng/mL] | microsomal CLint [15] [µL/min/mg] | AUC(0-t) [17] [ng·h/mL] | bioavailability [18] [%] | Cmax [19] [ng/mL] | half-life [20] [h] | clearance [21] [mL/min/kg] | bioavailability [22] [%] | AUC(0-t) [23] [ng·h/mL] | half-life [24] [h] | bioavailability [25] [%] | hepatocyte CLint [26] [µL/min/1e6 cells] | Compound | Activity [3] [log10/ml] | further results
6.8 | 4 | 0.2 (≈ 0.105 µg/mL) | 3.3 | 345 | 6.8 | < 8 | 1760 | < 8 | 19100 | 76 | 365 | 11.5 | 6.3 | 45 | 8390 | 6.2 | 54 | < 1.9 | COc1cc(NC(C(=O)c2c[nH]c3cc(OC)c(C)cc23)c2ccc(Cl)cc2OC)cc(OCCO)c1 (single isomer, unassigned; (+)) | 2.9 | AUC(0-t) [4]: 872 ng·h/mL; Activity [6]: Dose-Dependent Effect; bioavailability [7]: 35%; EC50 ([11]; Dengue virus, H241, Vero): 84 nM; EC50 [14]: 1 nM; Cmax [16]: 83 ng/mL; microsomal CLint [27]: < 8 µL/min/mg; EC50 [28]: 26 nM; AUC(0-t) [29]: 4050 ng·h/mL; IC50 [30]: > 10000 nM
10.1 | 8 | 1 (≈ 0.499 µg/mL) | 2 | 435 | 46.2 | 9 | 1720 | < 8 | 6030 | 52 | 192 | 6.4 | 16.6 | 69 | 2430 | 2 | 40 | < 1.9 | COc1cc(NC(C(=O)c2c[nH]c3cc(F)ccc23)c2ccc(Cl)cc2OC)cc(OCCO)c1 (single isomer, unassigned; (+)) | 2 | EC50 ([11]; vero): 240 nM; bioavailability [31]: 85%; Cmax [32]: 5100 ng/mL; microsomal CLint [27]: 32 µL/min/mg; EC50 [28]: 63 nM; AUC(0-t) [29]: 1410 ng·h/mL; IC50 [30]: 10000 nM; AUC(0-t) [33]: 29500 ng·h/mL
